Drawing on patent US20250163038A1, “CBL-B MODULATORS AND USES THEREOF” (Nimbus Clio, Inc., priority 2021, published 2025), this text covers IC50 and EC50 for 16 compounds.

Assay [1] addresses T1, Recombinant human c-Cbl (aa 47-435) (Homo sapiens, UniProt P22681).
T1 sequence (P22681 47-435): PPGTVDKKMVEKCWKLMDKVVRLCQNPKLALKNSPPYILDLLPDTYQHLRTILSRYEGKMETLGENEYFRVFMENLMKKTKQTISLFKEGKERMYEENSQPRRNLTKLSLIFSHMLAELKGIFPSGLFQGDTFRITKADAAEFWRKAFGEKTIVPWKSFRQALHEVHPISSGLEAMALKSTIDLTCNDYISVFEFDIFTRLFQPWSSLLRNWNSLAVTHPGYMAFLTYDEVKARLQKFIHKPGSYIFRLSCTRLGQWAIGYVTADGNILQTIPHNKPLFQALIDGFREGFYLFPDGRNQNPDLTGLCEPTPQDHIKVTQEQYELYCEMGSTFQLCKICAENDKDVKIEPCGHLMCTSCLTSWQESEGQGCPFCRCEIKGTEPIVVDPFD
Kind of assay: c-Cbl Biochemical Assay (TR-FRET). Conditions: hc-Cbl Biochemical Assay (TR-FRET); read-out: TR-FRET hcCbl IC50.

For assay [2], the target named is Recombinant human Cbl-b (aa 36-427) (Homo sapiens, UniProt Q13191). Description: Cbl-b Biochemical Assay (TR-FRET). To be noted: read-out: TR-FRET hCbl-b IC50.
Assay [3] concerns Jurkat (clone E6-1) cells with NFAT luciferase reporter. Kind of assay: Jurkat reporter assay (NFAT Luciferase). The class given is cell-based. To be noted: Homo sapiens; Jurkat NFAT luciferase reporter cells, anti-CD3 stimulation, 6 hr; read-out: Jurkat NFAT EC50.

Recombinant human Cbl-b (aa 36-427), sequence (Q13191 36-427): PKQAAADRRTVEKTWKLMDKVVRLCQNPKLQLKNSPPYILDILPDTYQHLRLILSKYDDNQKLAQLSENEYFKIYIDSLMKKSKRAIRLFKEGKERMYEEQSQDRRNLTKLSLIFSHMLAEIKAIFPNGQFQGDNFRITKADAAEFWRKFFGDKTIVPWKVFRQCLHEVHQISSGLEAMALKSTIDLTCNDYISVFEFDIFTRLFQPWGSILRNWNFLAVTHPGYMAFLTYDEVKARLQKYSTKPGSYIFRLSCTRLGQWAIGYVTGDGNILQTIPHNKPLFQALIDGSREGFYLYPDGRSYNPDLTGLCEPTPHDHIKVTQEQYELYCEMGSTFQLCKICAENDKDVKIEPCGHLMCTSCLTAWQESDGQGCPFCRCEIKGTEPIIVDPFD

In the case of `Cn1cnnc1-c1cc(F)ccc1-c1cccc(-c2nc3cc(CNC4CCC4)c(F)c(F)c3o2)c1` [JF-1, N-((6,7-Difluoro-2-(4′-fluoro-2′-(4-methyl-4H-1,2,4-triazol-3-yl)-[1,1′-biphenyl]-3-yl)benzo[d]oxazol-5-yl)methyl)cyclobutanamine], the IC50 in assay [1] was 200 to 1000 nM; in assay [2], under 200 nM. In addition, the EC50 in assay [3] was under 200 nM.
As for `Cn1cnnc1-c1cc(F)ccc1-c1cccc(-c2nc3cc(CNCC4(O)CCC4)cc(C4CC4)c3o2)c1` [JG-1, 1-((((7-Cyclopropyl-2-(4′-fluoro-2′-(4-methyl-4H-1,2,4-triazol-3-yl)-[1,1′-biphenyl]-3-yl)benzo[d]oxazol-5-yl)methyl)amino)methyl)cyclobutan-1-ol], the IC50 in assay [1] and in assay [2] was under 200 nM throughout. Besides, the EC50 in assay [3] is under 200 nM.
As to `COCCNCc1cc(C2CC2)c2oc(-c3cccc(-c4ccc(F)cc4-c4nncn4C)c3)nc2c1` [JH-1, N-((7-Cyclopropyl-2-(4′-fluoro-2′-(4-methyl-4H-1,2,4-triazol-3-yl)-[1,1′-biphenyl]-3-yl)benzo[d]oxazol-5-yl)methyl)-2-methoxyethan-1-amine], the IC50 in assay [1] and in assay [2] was under 200 nM in each case. For the same compound, the EC50 in assay [3] is under 200 nM.
On to `Cn1cnnc1-c1cc(F)ccc1-c1cccc(-c2nc3cc(CN[C@@H]4CCC[C@@]4(O)C(F)(F)F)cc(C(F)(F)F)c3o2)c1` [JI-3, (1S,2R)-2-(((2-(4′-Fluoro-2′-(4-methyl-4H-1,2,4-triazol-3-yl)-[1,1′-biphenyl]-3-yl)-7-(trifluoromethyl)benzo[d]oxazol-5-yl)methyl)amino)-1-(trifluoromethyl)cyclopentan-1-ol], for which the IC50 in assay [1] and in assay [2] was under 200 nM throughout. In assay [3], the EC50 was under 200 nM.
Take `CN(Cc1cc2nc(-c3cccc(-c4ccc(F)cc4-c4nncn4C)c3)oc2c(F)c1F)[C@@H]1CCC[C@@H]1O` [JJ-3, (1S,2R)-2-(((6,7-Difluoro-2-(4′-fluoro-2′-(4-methyl-4H-1,2,4-triazol-3-yl)-[1,1′-biphenyl]-3-yl)benzo[d]oxazol-5-yl)methyl)(methyl)amino)cyclopentan-1-ol]: the IC50 in assay [1] and in assay [2] was under 200 nM throughout. Further, the EC50 in assay [3] was in the range of 200 to 1000 nM.
With `COCCNC(COC)c1cc(C)c2oc(-c3cccc(-c4ccc(F)cc4-c4nncn4C)c3)nc2c1` (stereo not drawn) [JK-7, 1-(2-(4′-Fluoro-2′-(4-methyl-4H-1,2,4-triazol-3-yl)-[1,1′-biphenyl]-3-yl)-7-methylbenzo[d]oxazol-5-yl)-2-methoxy-N-(2-methoxyethyl)ethan-1-amine], the IC50 in assay [1] is 200 to 1000 nM; in assay [2], under 200 nM. In addition, the EC50 in assay [3] lay within 1000 to 10000 nM.
In the case of `Cn1cnnc1-c1cc(F)ccc1-c1cc(-c2nc3cc(CNCC(C)(C)O)cc(C(F)(F)F)c3o2)cc(C2CC2)c1` [JL-1, 1-(((2-(5-Cyclopropyl-4′-fluoro-2′-(4-methyl-4H-1,2,4-triazol-3-yl)-[1,1′-biphenyl]-3-yl)-7-(trifluoromethyl)benzo[d]oxazol-5-yl)methyl)amino)-2-methylpropan-2-ol], the IC50 in assay [1] and in assay [2] was under 200 nM throughout. For the same compound, in assay [3], the EC50 was under 200 nM.
For `Cn1cnnc1-c1cc(F)ccc1-c1cc(-c2nc3cc(CN[C@@H]4CCC[C@@H]4O)cc(F)c3o2)cc(C2CC2)c1` [JM-4, (1S,2R)-2-(((2-(5-Cyclopropyl-4′-fluoro-2′-(4-methyl-4H-1,2,4-triazol-3-yl)-[1,1′-biphenyl]-3-yl)-7-fluorobenzo[d]oxazol-5-yl)methyl)amino)cyclopentan-1-ol], the IC50 in assay [1] and in assay [2] was under 200 nM throughout. The EC50 in assay [3] is under 200 nM.
For `Cn1cnnc1-c1cc(F)ccc1-c1cccc(-c2nc3cc(CNCC(C)(C)O)cc(F)c3o2)c1` [JN-1, 1-(((7-Fluoro-2-(4′-fluoro-2′-(4-methyl-4H-1,2,4-triazol-3-yl)-[1,1′-biphenyl]-3-yl)benzo[d]oxazol-5-yl)methyl)amino)-2-methylpropan-2-ol], the IC50 in assay [1] and in assay [2] was under 200 nM throughout. For the same compound, in assay [3], the EC50 was under 200 nM.
As to `Cn1cnnc1-c1cc(F)ccc1-c1cc(-c2nc3cc(CNCC4CCC4)cc(F)c3o2)cc(C2CC2)c1` [JO-1, 1-Cyclobutyl-N-((2-(5-cyclopropyl-4′-fluoro-2′-(4-methyl-4H-1,2,4-triazol-3-yl)-[1,1′-biphenyl]-3-yl)-7-fluorobenzo[d]oxazol-5-yl)methyl)methanamine], the IC50 in assay [1] and in assay [2] was under 200 nM in each case. Further, in assay [3], the EC50 is under 200 nM.
With `C[C@H](O)CNCc1cc(F)c2oc(-c3cccc(-c4ccc(F)cc4-c4nncn4C)c3)nc2c1` [JP-1, (S)-1-(((7-Fluoro-2-(4′-fluoro-2′-(4-methyl-4H-1,2,4-triazol-3-yl)-[1,1′-biphenyl]-3-yl)benzo[d]oxazol-5-yl)methyl)amino)propan-2-ol], the IC50 in assay [1] and in assay [2] was under 200 nM throughout. Further, the EC50 in assay [3] was under 200 nM.
Regarding `Cn1cnnc1-c1cc(F)ccc1-c1cc(-c2nc3cc(CNCC(C)(C)O)cc(F)c3o2)cc(C2CC2)c1` [JQ-1, 1-(((2-(5-Cyclopropyl-4′-fluoro-2′-(4-methyl-4H-1,2,4-triazol-3-yl)-[1,1′-biphenyl]-3-yl)-7-fluorobenzo[d]oxazol-5-yl)methyl)amino)-2-methylpropan-2-ol], the half-inhibitory concentration (IC50) in assay [1] and in assay [2] was under 200 nM in each case. The EC50 in assay [3] was under 200 nM.
With `CO[C@@H]1CCCN(Cc2cc(C(F)(F)F)c3oc(-c4cccc(-c5ccc(F)cc5-c5nncn5C)c4)nc3c2)C1` [JR-2, (R)-2-(4′-Fluoro-2′-(4-methyl-4H-1,2,4-triazol-3-yl)-[1,1′-biphenyl]-3-yl)-5-((3-methoxypiperidin-1-yl)methyl)-7-(trifluoromethyl)benzo[d]oxazole], the IC50 in assay [1] is 200 to 1000 nM; in assay [2], under 200 nM. In addition, the EC50 in assay [3] is 200 to 1000 nM.
With `Cn1cnnc1-c1cc(F)ccc1-c1cc(-c2nc3cc(CNCC4(O)CCC4)cc(C(F)(F)F)c3o2)cc(C2CC2)c1` [JS-1, 1-((((2-(5-Cyclopropyl-4′-fluoro-2′-(4-methyl-4H-1,2,4-triazol-3-yl)-[1,1′-biphenyl]-3-yl)-7-(trifluoromethyl)benzo[d]oxazol-5-yl)methyl)amino)methyl)cyclobutan-1-ol], the IC50 in assay [1] and in assay [2] was under 200 nM throughout. In assay [3], the EC50 was under 200 nM.
Consider `COCCNCc1cc(C(F)(F)F)c2oc(-c3cc(-c4ccc(F)cc4-c4nncn4C)cc(C4CC4)c3)nc2c1` [JT-1, N-((2-(5-Cyclopropyl-4′-fluoro-2′-(4-methyl-4H-1,2,4-triazol-3-yl)-[1,1′-biphenyl]-3-yl)-7-(trifluoromethyl)benzo[d]oxazol-5-yl)methyl)-2-methoxyethan-1-amine], for which the IC50 in assay [1] and in assay [2] was under 200 nM throughout. Further, in assay [3], the EC50 was under 200 nM.
Take `Cn1cnnc1-c1cc(F)ccc1-c1cc(-c2nc3cc(CNCC4CCC4)cc(C(F)(F)F)c3o2)cc(C2CC2)c1` [JU-1, 1-Cyclobutyl-N-((2-(5-cyclopropyl-4′-fluoro-2′-(4-methyl-4H-1,2,4-triazol-3-yl)-[1,1′-biphenyl]-3-yl)-7-(trifluoromethyl)benzo[d]oxazol-5-yl)methyl)methanamine]: the IC50 in assay [1] and in assay [2] was under 200 nM throughout. In addition, the EC50 in assay [3] was under 200 nM.
